Source: US11712458B2, “Degradation of Bruton's tyrosine kinase (BTK) by conjugation of BTK inhibitors with E3 ligase ligand and methods of use” (DANA-FARBER CANCER INSTITUTE, INC., priority 2018, dated 2023)

System: patient-derived mantle cell lymphoma (MCL) cells (DFBL-96069)
Assay: Patient-derived xenograft MCL mouse model
Format: in vivo
Conditions: NSG mice grafted with MCL cells, IP, QD, 50 mg/kg, two weeks; FIG. 5
Procedure: NSG Mice were grafted with patient-derived mantle cell lymphoma (MCL) cells (DFBL-96069). Once burden of disease reached ˜2%, treatment began with indicated compounds: vehicle (IP, BID), Compound I-1 (IP, QD, 50 mg/kg), lenalidomide (IP, QD, 50 mg/kg), and ibrutinib (PO, QD, 30 mg/kg). Mice were treated for two weeks and 4-6 hours after the last dose, peripheral blood was taken and quantified for disease burden via flow cytometry.

Cc1c(NC(=O)c2ccc(C(C)(C)C)cc2)cccc1-c1cn(C)c(=O)c(Nc2ccc(C(=O)N3CCN(CCCCCCNC(=O)CNc4cccc5c4C(=O)N(C4CCC(=O)NC4=O)C5=O)CC3)cc2)n1 (stereo not shown) [II-1]
Efficacy (disease burden in peripheral blood via flow cytometry): showed efficacy
